Laboratory results reported in ChEMBL document CHEMBL1145470, “Identification of the novel narrow-spectrum beta-lactamase SCO-1 in Acinetobacter spp. from Argentina” (Antimicrob Agents Chemother, 2007).
Converted amounts (≈) assume the structure as drawn.

Legend:
[1] = tested on: Acinetobacter johnsonii; test: Ratio of kcat to Km for Acinetobacter johnsonii SCO1
[2] = tested on: Acinetobacter johnsonii; test: Antibacterial activity against Acinetobacter johnsonii 7037 expressing SCO1 by agar dilution technique; assay type: functional
[3] = tested on: Escherichia coli; test: Antibacterial activity against Escherichia coli DH10B expressing SCO1 by agar dilution technique; assay type: functional
[4] = tested on: Acinetobacter johnsonii; test: Activity of Acinetobacter johnsonii SCO1
[5] = tested on: Escherichia coli; test: Antibacterial activity against Escherichia coli DH10B by agar dilution technique; assay type: functional
[6] = Inhibition of Acinetobacter johnsonii SCO1

Structure (SMILES)	Ratio [1] [mM⁻¹ s⁻¹]	MIC [2] [µg/mL]	MIC [3] [µg/mL]	Km [4] [µM]	kcat [4] [s⁻¹]	MIC [5] [µg/mL]	IC50 [6] [nM]
CO/N=C(\C(=O)N[C@@H]1C(=O)N2C(C(=O)[O-])=C(C[N+]3(C)CCCC3)CS[C@H]12)c1csc(N)n1 [CEFEPIME]	0.8	> 512	0.12 (≈ 0.25 µM)	> 2000	> 1.5	–	–
CO[C@@]1(NC(=O)Cc2cccs2)C(=O)N2C(C(=O)O)=C(COC(N)=O)CS[C@@H]21 [CEFOXITIN]	–	> 512	4 (≈ 9.36 µM)	–	< 0.01	4 (≈ 9.36 µM)	–
CC1(C)S[C@@H]2[C@H](NC(=O)Cc3ccccc3)C(=O)N2[C@H]1C(=O)O	7500	–	–	20	150	–	–
CC(=O)OCC1=C(C(=O)O)N2C(=O)[C@@H](NC(=O)Cc3cccs3)[C@H]2SC1 [CEPHALOTHIN]	1	> 512	8 (≈ 20.2 µM)	120	0.1	2 (≈ 5.04 µM)	–
C[C@H]1[C@H](NC(=O)/C(=N\OC(C)(C)C(=O)O)c2csc(N)n2)C(=O)N1S(=O)(=O)O [AZTREONAM]	–	> 512	–	–	< 0.01	–	–
O=C(O)[C@H]1/C(=C/CO)O[C@@H]2CC(=O)N21 [CLAVULANIC ACID]	–	–	–	–	–	–	300
CC1(C)S[C@@H]2[C@H](NC(=O)[C@H](N)c3ccccc3)C(=O)N2[C@H]1C(=O)O	6700	–	–	40	270	–	–
C[C@]1(Cn2ccnn2)[C@H](C(=O)O)N2C(=O)C[C@H]2S1(=O)=O [TAZOBACTAM]	–	–	–	–	–	–	1200
CO/N=C(\C(=O)N[C@@H]1C(=O)N2C(C(=O)O)=C(COC(C)=O)CS[C@H]12)c1csc(N)n1 [CEFOTAXIME]	0.05	> 512	0.25 (≈ 0.549 µM)	2000	0.1	0.12 (≈ 0.263 µM)	–
C[C@@H](O)[C@H]1C(=O)N2C(C(=O)O)=C(SCCNC=N)C[C@H]12 [IMIPENEM ANHYDROUS]	0.008	0.12 (≈ 0.401 µM)	–	3800	0.03	–	–
C[C@@H](O)[C@H]1C(=O)N2C(C(=O)O)=C(S[C@@H]3CN[C@H](C(=O)N(C)C)C3)[C@H](C)[C@H]12	–	–	–	–	< 0.01	–	–
CO/N=C(\C(=O)N[C@@H]1C(=O)N2C(C(=O)O)=C(COC(N)=O)CS[C@H]12)c1ccco1 [CEFUROXIME]	0.08	> 512	4 (≈ 9.43 µM)	650	0.05	2 (≈ 4.71 µM)	–
CC1(C)S[C@@H]2[C@H](NC(=O)[C@H](C(=O)O)c3ccsc3)C(=O)N2[C@H]1C(=O)O [TICARCILLIN]	450	> 512	> 512	80	35	2 (≈ 5.2 µM)	–
CC(C)(O/N=C(\C(=O)N[C@@H]1C(=O)N2C(C(=O)[O-])=C(C[n+]3ccccc3)CS[C@H]12)c1csc(N)n1)C(=O)O [CEFTAZIDIME]	0.5	> 512	0.5 (≈ 0.915 µM)	600	0.3	0.06 (≈ 0.11 µM)	–
CC1(C)S[C@@H]2[C@H](NC(=O)[C@H](N)c3ccc(O)cc3)C(=O)N2[C@H]1C(=O)O [AMOXICILLIN]	–	> 512	> 512	–	–	2 (≈ 5.47 µM)	–
CCN1CCN(C(=O)N[C@@H](C(=O)N[C@@H]2C(=O)N3[C@@H]2SC(C)(C)[C@@H]3C(=O)O)c2ccccc2)C(=O)C1=O [PIPERACILLIN]	40	64 (≈ 124 µM)	128 (≈ 247 µM)	10	0.4	1 (≈ 1.93 µM)	–
